Measured values taken from US9326973B2, “Hepatitis C virus inhibitors” (priority 2012, dated 2016).

System: HCV replicon, genotype-1a variant with glutamine 30 changed to glutamate in the NS5A protein
Assay: microbe, parasite or virus in culture
Format: cell-based, HCV genotype 1a
Settings: HCV replicon genotype 1a Q30E (Q→E) variant; test compound titrated with an NS5A-targeting compound (BMS-790052 fixed at 200 nM); ranking of synergist activity
How it was run: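 Synergy was assessed by combining several fixed amounts of an NS5A-targeting compound with a titration of the second compound of interest.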

Row | SMILES | Fold-Synergistic 1a (Q30E)
1 | CC(C)(C)OC(=O)N[C@H]1CCC[C@@H]1C(=O)N[C@H](c1nc(-c2ccc(-c3ccc(-c4c[nH]c([C@@H](NC(=O)[C@H]5CCC[C@@H]5NC(=O)OC(C)(C)C)C(C)(C)C)n4)cc3)cc2)c[nH]1)C(C)(C)C [Compound W-9] | >100 fold
2 | CN(C)C(=O)C(=O)N[C@H](c1nc(-c2ccc(-c3ccc(-c4c[nH]c([C@@H](NC(=O)C(=O)N(C)C)C(C)(C)C)n4)cc3)cc2)c[nH]1)C(C)(C)C [Compound W-10] | >100 fold
3 | CC(C)(C)OC(=O)N[C@@H]1CCC[C@H]1C(=O)N[C@H](c1nc(-c2ccc(-c3ccc(-c4c[nH]c([C@@H](NC(=O)[C@@H]5CCC[C@H]5NC(=O)OC(C)(C)C)C(C)(C)C)n4)cc3)cc2)c[nH]1)C(C)(C)C [Compound W-12] | >100 fold
4 | CC(C)(C)[C@H](NC(=O)C(=O)c1cccs1)c1nc(-c2ccc(-c3ccc(-c4c[nH]c([C@@H](NC(=O)C(=O)c5cccs5)C(C)(C)C)n4)cc3)cc2)c[nH]1 [Compound W-19] | >100 fold
5 | CC(C)(C)[C@H](NC(=O)C(=O)c1ccco1)c1nc(-c2ccc(-c3ccc(-c4c[nH]c([C@@H](NC(=O)C(=O)c5ccco5)C(C)(C)C)n4)cc3)cc2)c[nH]1 [Compound W-20] | >100 fold
6 | CC(C)(C)[C@H](NC(=O)C(=O)N1CCCC1)c1nc(-c2ccc(-c3ccc(-c4c[nH]c([C@@H](NC(=O)C(=O)N5CCCC5)C(C)(C)C)n4)cc3)cc2)c[nH]1 [Compound W-21] | >100 fold
7 | CC(C)(C)[C@H](NC(=O)C(=O)N1CCC(F)(F)C1)c1nc(-c2ccc(-c3ccc(-c4c[nH]c([C@@H](NC(=O)C(=O)N5CCC(F)(F)C5)C(C)(C)C)n4)cc3)cc2)c[nH]1 [Compound W-22] | >100 fold
8 | CC(C)(C)[C@H](NC(=O)C(=O)N1CCOCC1)c1nc(-c2ccc(-c3ccc(-c4c[nH]c([C@@H](NC(=O)C(=O)N5CCOCC5)C(C)(C)C)n4)cc3)cc2)c[nH]1 [Compound W-25] | >100 fold
9 | CC(C)(C)[C@H](NC(=O)C(=O)N1CCC(F)CC1)c1nc(-c2ccc(-c3ccc(-c4c[nH]c([C@@H](NC(=O)C(=O)N5CCC(F)CC5)C(C)(C)C)n4)cc3)cc2)c[nH]1 [Compound W-26] | >100 fold
10 | CC(C)(C)[C@H](NC(=O)C(=O)N1CC[C@H](F)C1)c1nc(-c2ccc(-c3ccc(-c4c[nH]c([C@@H](NC(=O)C(=O)N5CC[C@H](F)C5)C(C)(C)C)n4)cc3)cc2)c[nH]1 [Compound W-27] | >100 fold
11 | CC(C)(C)[C@H](NC(=O)C(=O)N1CC(F)(F)C1)c1nc(-c2ccc(-c3ccc(-c4c[nH]c([C@@H](NC(=O)C(=O)N5CC(F)(F)C5)C(C)(C)C)n4)cc3)cc2)c[nH]1 [Compound W-28] | >100 fold
12 | CC(C)(C)[C@H](NC(=O)C(=O)N1CCCCCC1)c1nc(-c2ccc(-c3ccc(-c4c[nH]c([C@@H](NC(=O)C(=O)N5CCCCCC5)C(C)(C)C)n4)cc3)cc2)c[nH]1 [Compound W-32] | >100 fold
13 | CCN(CC)C(=O)C(=O)N[C@H](c1nc(-c2ccc(-c3ccc(-c4c[nH]c([C@@H](NC(=O)C(=O)N(CC)CC)C(C)(C)C)n4)cc3)cc2)c[nH]1)C(C)(C)C [Compound W-33] | >100 fold
14 | CN1CCN(C(=O)C(=O)N[C@H](c2nc(-c3ccc(-c4ccc(-c5c[nH]c([C@@H](NC(=O)C(=O)N6CCN(C)CC6)C(C)(C)C)n5)cc4)cc3)c[nH]2)C(C)(C)C)CC1 [Compound W-35] | >100 fold
15 | CCN(CC(F)(F)F)C(=O)C(=O)N[C@H](c1nc(-c2ccc(-c3ccc(-c4c[nH]c([C@@H](NC(=O)C(=O)N(CC)CC(F)(F)F)C(C)(C)C)n4)cc3)cc2)c[nH]1)C(C)(C)C [Compound W-37] | >100 fold
16 | C[C@@H]1CCCCN1C(=O)C(=O)N[C@H](c1nc(-c2ccc(-c3ccc(-c4c[nH]c([C@@H](NC(=O)C(=O)N5CCCC[C@H]5C)C(C)(C)C)n4)cc3)cc2)c[nH]1)C(C)(C)C [Compound W-38] | >100 fold
17 | CC(C)(C)[C@H](NC(=O)C(=O)N(CCC#N)C1CC1)c1nc(-c2ccc(-c3ccc(-c4c[nH]c([C@@H](NC(=O)C(=O)N(CCC#N)C5CC5)C(C)(C)C)n4)cc3)cc2)c[nH]1 [Compound W-48] | >100 fold
18 | CC(C)N(C(=O)C(=O)N[C@H](c1nc(-c2ccc(-c3ccc(-c4c[nH]c([C@@H](NC(=O)C(=O)N(C(C)C)C5CC5)C(C)(C)C)n4)cc3)cc2)c[nH]1)C(C)(C)C)C1CC1 [Compound W-49] | >100 fold
19 | CN(C(=O)C(=O)N[C@H](c1nc(-c2ccc(-c3ccc(-c4c[nH]c([C@@H](NC(=O)C(=O)N(C)C5CC5)C(C)(C)C)n4)cc3)cc2)c[nH]1)C(C)(C)C)C1CC1 [Compound W-50] | >100 fold

Row | SMILES | Fold-Synergistic 1a (Q30E)
20 | CC(C)[C@H](NC(=O)C(=O)N1CCC(F)(F)CC1)c1nc(-c2ccc(-c3ccc(-c4c[nH]c([C@@H](NC(=O)C(=O)N5CCC(F)(F)CC5)C(C)C)n4)cc3)cc2)c[nH]1 [Compound W-51] | >100 fold
21 | CC(C)[C@H](NC(=O)C(=O)N1CCCCCC1)c1nc(-c2ccc(-c3ccc(-c4c[nH]c([C@@H](NC(=O)C(=O)N5CCCCCC5)C(C)C)n4)cc3)cc2)c[nH]1 [Compound W-52] | >100 fold
22 | CC(C)[C@H](NC(=O)C(=O)N1CCC(C(F)(F)F)CC1)c1nc(-c2ccc(-c3ccc(-c4c[nH]c([C@@H](NC(=O)C(=O)N5CCC(C(F)(F)F)CC5)C(C)C)n4)cc3)cc2)c[nH]1 [Compound W-53] | >100 fold
23 | CC(C)[C@H](NC(=O)C(=O)N1C[C@@H](C)O[C@@H](C)C1)c1nc(-c2ccc(-c3ccc(-c4c[nH]c([C@@H](NC(=O)C(=O)N5C[C@@H](C)O[C@@H](C)C5)C(C)C)n4)cc3)cc2)c[nH]1 [Compound W-54] | >100 fold
24 | CC(C)[C@H](NC(=O)C(=O)N(C(C)C)C1CC1)c1nc(-c2ccc(-c3ccc(-c4c[nH]c([C@@H](NC(=O)C(=O)N(C(C)C)C5CC5)C(C)C)n4)cc3)cc2)c[nH]1 [Compound W-55] | >100 fold
25 | CCN(CC(F)(F)F)C(=O)C(=O)N[C@H](c1nc(-c2ccc(-c3ccc(-c4c[nH]c([C@@H](NC(=O)C(=O)N(CC)CC(F)(F)F)C(C)C)n4)cc3)cc2)c[nH]1)C(C)C [Compound W-56] | >100 fold
26 | CC1([C@H](NC(=O)C(=O)N2CCCCCC2)c2nc(-c3ccc(-c4ccc(-c5c[nH]c([C@@H](NC(=O)C(=O)N6CCCCCC6)C6(C)CC6)n5)cc4)cc3)c[nH]2)CC1 [Compound W-57] | >100 fold
27 | CC(C)N(C(=O)C(=O)N[C@H](c1nc(-c2ccc(-c3ccc(-c4c[nH]c([C@@H](NC(=O)C(=O)N(C(C)C)C5CC5)C5(C)CC5)n4)cc3)cc2)c[nH]1)C1(C)CC1)C1CC1 [Compound W-58] | >100 fold
28 | CC1([C@H](NC(=O)C(=O)N2CCC(C(F)(F)F)CC2)c2nc(-c3ccc(-c4ccc(-c5c[nH]c([C@@H](NC(=O)C(=O)N6CCC(C(F)(F)F)CC6)C6(C)CC6)n5)cc4)cc3)c[nH]2)CC1 [Compound W-59] | >100 fold
29 | CC(C)(C)[C@H](NC(=O)C(=O)N1CCC(C(F)(F)F)CC1)c1nc(-c2ccc(-c3ccc(-c4c[nH]c([C@@H](NC(=O)C(=O)N5CCC(C(F)(F)F)CC5)C(C)(C)C)n4)cc3)cc2)c[nH]1 [Compound W-60] | >100 fold
30 | C[C@@H]1CN(C(=O)C(=O)N[C@H](c2nc(-c3ccc(-c4ccc(-c5c[nH]c([C@@H](NC(=O)C(=O)N6C[C@@H](C)O[C@@H](C)C6)C6(C)CC6)n5)cc4)cc3)c[nH]2)C2(C)CC2)C[C@H](C)O1 [Compound W-61] | >100 fold
31 | CC1([C@H](NC(=O)C2(N3CCC(F)(F)CC3)COC2)c2nc(-c3ccc(-c4ccc(-c5c[nH]c([C@@H](NC(=O)C6(N7CCC(F)(F)CC7)COC6)C6(C)CC6)n5)cc4)cc3)c[nH]2)CC1 [Compound W-62] | >100 fold
32 | CC(C)(C)[C@H](NC(=O)C1(N2CCC(F)(F)CC2)COC1)c1nc(-c2ccc(-c3ccc(-c4c[nH]c([C@@H](NC(=O)C5(N6CCC(F)(F)CC6)COC5)C(C)(C)C)n4)cc3)cc2)c[nH]1 [Compound W-63] | >100 fold
33 | CC(C)[C@H](NC(=O)C1(N2CCC(F)(F)CC2)COC1)c1nc(-c2ccc(-c3ccc(-c4c[nH]c([C@@H](NC(=O)C5(N6CCC(F)(F)CC6)COC5)C(C)C)n4)cc3)cc2)c[nH]1 [Compound W-64] | >100 fold
34 | CC(C)[C@H](NC(=O)C(=O)N(CC(F)(F)F)C(C)C)c1nc(-c2ccc(-c3ccc(-c4c[nH]c([C@@H](NC(=O)C(=O)N(CC(F)(F)F)C(C)C)C(C)C)n4)cc3)cc2)c[nH]1 [Compound W-65] | >100 fold
35 | CC(C)N(CC(F)(F)F)C(=O)C(=O)N[C@H](c1nc(-c2ccc(-c3ccc(-c4c[nH]c([C@@H](NC(=O)C(=O)N(CC(F)(F)F)C(C)C)C(C)(C)C)n4)cc3)cc2)c[nH]1)C(C)(C)C [Compound W-66] | >100 fold
36 | CC(C)(C)OC(=O)N1[C@@H]2CC2C[C@H]1C(=O)N[C@H](c1nc(-c2ccc(-c3ccc(-c4c[nH]c([C@@H](NC(=O)[C@@H]5CC6C[C@H]6N5C(=O)OC(C)(C)C)C(C)(C)C)n4)cc3)cc2)c[nH]1)C(C)(C)C (stereo partly shown) [Compound W-67] | >100 fold
37 | C[C@H]1C[C@@H](C(=O)N[C@H](c2nc(-c3ccc(-c4ccc(-c5c[nH]c([C@@H](NC(=O)[C@@H]6C[C@H](C)CN6C(=O)OC(C)(C)C)C(C)(C)C)n5)cc4)cc3)c[nH]2)C(C)(C)C)N(C(=O)OC(C)(C)C)C1 [Compound W-68] | >100 fold
